What was measured:
F1Fo-ATPase [1] = experiment: Inhibition of the F1Fo-ATPase; format: biochemical; conditions: binds to the OSCP in F1
Excerpt: F1Fo-ATPase inhibitors are invaluable tools for mechanistic studies of the F1Fo-ATPase (see, e.g., James A M, et al., J Biomed Sci 2002; 9:475-87; herein incorporated by reference in its entirety). Because F1Fo-ATPase inhibitors are often cytotoxic, they have been explored as drugs for cancer and other hyperproliferative disorders. Macrolides (e.g., oligomycin and apoptolidin) are non-competitive inhibitors of the F1Fo-ATPase (see, e.g., Salomon A R, et al., PNAS 2000; 97:14766-71; Salomon A R, et al., Chem Biol 2001; 8:71-80; herein incorporated by reference in its entirety). Macrolides bind to Fo which blocks proton flow through the channel resulting in inhibition of the F1Fo-ATPase. Macrolides are potent (e.g., the IC50 for oligomycin=10 nM) and lead to large decreases in [ATP]. As such, macrolides have an unacceptably narrow therapeutic index and are highly toxic (e.g., the LD50 for oligomycin in rodents is two daily doses at 0.5 mg/kg) (see, e.g., Kramar R, et al., Agents & Actions 1984, 15:660-63; herein incorporated by reference in its entirety). Other inhibitors of F1Fo-ATPase include Bz-423, which binds to the OSCP in F1 (as described elsewhere herein). Bz-423 has an Ki˜9 μM.

F1Fo-ATPase [2] = conditions: macrolide, non-competitive inhibitor binding to Fo; read-out: IC50 for inhibition of the F1Fo-ATPase; cited from earlier work
rodents = conditions: two daily doses; cited from earlier work

For `CN1C(=O)C(Cc2ccc3ccccc3c2)N=C(c2ccc(O)cc2)c2cc(Cl)ccc21` (stereo not drawn) [Bz-423], the Ki (F1Fo-ATPase [1]) was ~9 µM.
For `CC[C@H]1/C=C/C=C/C[C@@H](C)[C@H](O)[C@@](C)(O)C(=O)[C@@H](C)[C@H](O)[C@@H](C)C(=O)[C@@H](C)[C@H](O)[C@@H](C)/C=C/C(=O)O[C@@H]2[C@H](C)[C@H](CC1)O[C@]1(CC[C@H](C)[C@H](C[C@@H](C)O)O1)[C@H]2C` [oligomycin], the IC50 (F1Fo-ATPase [2]) is given as 10 nM and the LD50 (rodents) is given as 0.5 mg/kg.

Reference: patent publication US8097612B2 (priority 2006, dated 2012)
